In brackets after ≈: the same amount, converted by molar mass. Read-outs that look alike come from different tables or passages of the source.
Legend:
[1] = biological target: T1, yeast α-GLy (α-glucosidase, Sigma G0660) (Saccharomyces cerevisiae, UniProt P53341); experiment: biochemical; type: biochemical; details: yeast α-glucosidase; for IC50: 37°C, pH 6.8
T1 construct: purchased Sigma G0660
Experimental: S1. Materials and Methods […]
glucosidase inhibition assay. α-Glucosidase enzyme inhibition assay was carried out in a 96-well microplate. The method’s principle based on the hydrolyzed reaction of 4-nitrophenyl-α-D-glucopiranoside with α-glucosidase enzyme into yellow 4- […]
p-Nitrophenyl α-D-Glucoside a- Gl ucosidas e α-D-Glucose + p- Nitrophenol α-Glucosidase inhibitory activity assay was performed following the modified method of Pistia Brueggeman and Hollingsworth with slight modification. Quinopimaric […]
concentrations of 256, 64, 16, 4 and 1 µg/mL. In a 96-well plate, a reaction mixture containing 20 μL of phosphate buffer (100 mM; pH 6.8), 20 μL of α-glucosidase (0.3 U/mL, Sigma G0660) (this concentration was determined by a series of α-glucosidase […]
linearity between the enzyme concentration and the absorbance of yellow color mixture after reaction which was approximately 5-fold higher than the back ground and at least […]
concentrations was pre-incubated for 10 min at 37°C. Then 20 μL of […] p-nitrophenyl α-D-glucopyranoside (Sigma N1377) was added to the mixture as a substrate. After further incubation at 37°C for 30 min, the reaction was stopped by adding 80 μL of 0.1 […]
solution were prepared using the phosphate buffer […]; pH 6.8. […]
as a positive control and water as negative control. The yellow color produced was quantitated by colorimetric analysis and reading the absorbance at 410 nm. Each experiment was performed in triplicates, along with appropriate blanks. The solvent DMSO was use as negative control to evaluate its effect on α-glucosidase activity. […]
or substrate in negative control. Back ground was determined by volume of buffer as […]
The % inhibition has been obtained using the formula:
% inhibition = {Absorbance (control) –Absorbance (sample)}/Absorbance (control) IC50 value is defined as the concentration of samples inhibiting 50% of α-glucosidase activity under the stated assay conditions. […]

[2] = DPPH radical scavenging assay; details: DPPH 0.1 mM in methanol, 25°C, 30 min
Experimental: DPPH radical scavenging assay as described by Ha. The hydrogen atom donating ability of the plant extractives was determined by the decolorization of methanol solution of 2,2-diphenyl-1-picrylhydrazyl (DPPH). DPPH produces purple color in methanol solution and fades to shades of yellow color in the presence of antioxidants. […]
DPPH (0.1 mM) was diluted in methanol. 200 μL of this solution was added to 1.3 μL of various concentrations of compounds in DMSO (256.0, 64.0, 16.0, and 4.0 μg/mL). The mixture was performed by a 96-well plate at 25 °C in 30 min. Then, absorbance was determined by Epoch™ Microplate Spectrophotometer (at 517 nm). The percentage of DPPH quenching activity was computed by the following formula:
Inhibitory percentage SC (%) = [(Ao - A1)/Ao] × 100. where AO was defined as the absorbance of control reaction, and A1 represented for the absorbance in the presence of test or standard sample. Each experiment was repeated three times. Quercetin was used as a reference compound. […]

MTT cytotoxicity assay = details: human
Experimental: The cytotoxic activity of compounds was evaluated against four cancer cell lines KB, Hep-G2, Lu-1 and MCF-7, using colorimetric MTT assay. […]
MTT assay was used to determine the cytotoxic activity of compounds with human cancer cell lines acquired from the American Type Culture Collection (ATCC): epidermoid carcinoma (KB, ATCC number CCL-17), hepatocellular carcinoma (HepG2, ATCC number HB-8065), lung adenocarcinoma LU-1 (ATCC number HTB - 57TM), breast adenocarcinoma MCF-7 (ATCC number HTB - 22TM. Cells were cultured in medium DMEM supplemented with 10% Fetal bovine serum (FBS), 1% Penicillin and Streptomycin and 1% L-glutamine, under a humidified atmosphere of 5% CO2 at 37°C.
Compounds were dissolved in DMSO at 40 mg/mL and a series of dilutions for each compound was prepared to final concentrations of 256, 64, 16, 4 and 1 μg/mL. Cells were separated with trypsin and seeded in each well with 3 x10^4 cells per ml and were treated with sample different concentrations on 96-well plates. Untreated cells represented the controls. After 72h of treatment, an MTT solution (10 μl, 5 mg/mL) of phosphate buffer was added to each well for 4 h until intracellular purple formazan crystals are visible. Remove MTT and add DMSO solution (100 μL). The optical density of the solution was determined by Epoch™ Microplate Spectrophotometer at 540 nm. The inhibition ratio was calculated based on the optical densities from the three replicate […]
(§1) are evaluated to have cytotoxic activity.

Salmonella enterica = experiment: Antimicrobial broth microdilution; type: cell-based; details: S. enterica
Experimental: (§2) Table S2. The result of antimicrobial tests of compounds 38, 45, 48 and 50.
(§3) Gram (+) strains Gram (-) strains Fungi
(§4) Compound Values (µg/ml) S. aureus B. L. S. E. P. C. subtilis fermentum enterica coli aeruginosa albican
(§5) The antimicrobial activity was determined by broth microdilution method as reported by. Broth dilution testing is one of the common methods used for determination of the MICs and IC50. The compounds are examined for visible bacterial growth as evidenced by turbidity. […]
(§6) S1.5. In vitro antimicrobial activity study of compounds 38, 45, 48 and 50 The Gram-positive bacteria: Bacillus subtilis (ATCC 6633), Lactobacillus fermentum (N4), Staphylococcus aureus (ATCC 13709); Gram -negative bacteria: Escherichia coli (ATCC 25922), Pseudomonas aeruginosa (ATCC 15442), Salmonella enterica; Yeast: Candida albicans (ATCC 10231) were obtained from American Type Culture Collection. The bacterial […]
(§7) Sabourand 2% dextrose broth, were purchased from Merck. […]
(§8) remaining at –80 0 C. Before assay, they were activated by culture medium and, adjusted the concentration to 5x10^5 CFU/mL. 10 μL of each concentration of each test […]
(§9) further incubated at 37 °C within 16-24h. The experiment was triplicated. Positive […]
(§10) medium without bacteria as a negative control. Ampicillin was used as a reference […]
(§11) inhibiting 50% the visible growth of the tested microorganisms. MIC, IC50 values are typically expressed as molar concentration. […]
(§12) treated with sample different concentrations on 96-well plates. Untreated cells represented the controls. […]
(§13) crystals are visible. Remove MTT and add DMSO solution (100 μL). The optical density […]
as §1

[3] = system: Escherichia coli (ATCC 25922); experiment: Antimicrobial broth microdilution; type: cell-based; details: ATCC25922, E. coli
Experimental: as §2, §3, §4, §5, §6, §7, §8, §9, §10, §11, §12, §13, §1

[4] = system: Candida albicans (ATCC 10231); experiment: Antimicrobial broth microdilution; type: cell-based; details: ATCC10231, C. albican
Experimental: as §2, §3, §4, §5, §6, §7, §8, §9, §10, §11, §12, §13, §1

[5] = system: Staphylococcus aureus (ATCC 13709); experiment: Antimicrobial broth microdilution; type: cell-based; details: ATCC13709, S. aureus
Experimental: as §2, §3, §4, §5, §6, §7, §8, §9, §10, §11, §12, §13, §1

[6] = system: Bacillus subtilis (ATCC 6633); experiment: Antimicrobial broth microdilution; type: cell-based; details: ATCC6633, B. subtilis
Experimental: as §2, §3, §4, §5, §6, §7, §8, §9, §10, §11, §12, §13, §1

[7] = system: Pseudomonas aeruginosa (ATCC 15442); experiment: Antimicrobial broth microdilution; type: cell-based; details: ATCC15442, P. aeruginosa
Experimental: as §2, §3, §4, §5, §6, §7, §8, §9, §10, §11, §12, §13, §1

[8] = system: Lactobacillus fermentum (N4); experiment: Antimicrobial broth microdilution; type: cell-based; details: L. fermentum
Experimental: as §2, §3, §4, §5, §6, §7, §8, §9, §10, §11, §12, §13, §1

[9] = IC50 ± SE, α-glucosidase inhibition
[10] = read-out: IC50 ± SE, α-glucosidase inhibition

T1 sequence (P53341 whole entry): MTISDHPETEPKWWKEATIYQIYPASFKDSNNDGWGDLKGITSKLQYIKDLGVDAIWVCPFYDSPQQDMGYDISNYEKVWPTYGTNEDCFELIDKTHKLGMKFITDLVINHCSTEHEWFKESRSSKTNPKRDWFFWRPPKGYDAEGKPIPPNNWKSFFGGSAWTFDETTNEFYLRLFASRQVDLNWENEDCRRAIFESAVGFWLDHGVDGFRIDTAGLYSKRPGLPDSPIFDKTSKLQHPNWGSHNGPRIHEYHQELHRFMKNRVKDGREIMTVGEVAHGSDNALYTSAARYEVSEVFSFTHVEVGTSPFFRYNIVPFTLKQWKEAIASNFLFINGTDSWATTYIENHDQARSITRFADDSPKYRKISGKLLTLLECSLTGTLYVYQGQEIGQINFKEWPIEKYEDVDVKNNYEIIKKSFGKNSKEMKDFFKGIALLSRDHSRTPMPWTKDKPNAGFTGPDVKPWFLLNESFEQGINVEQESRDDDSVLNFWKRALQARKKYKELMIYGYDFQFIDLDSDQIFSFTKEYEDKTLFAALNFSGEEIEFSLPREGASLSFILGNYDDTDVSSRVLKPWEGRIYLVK

SMILES: Cc1[nH]c2c3c(c(O)cc2c1C#N)[C@H]1C[C@@H]2[C@@]4(C)CCC[C@@](C)(C(=O)O)[C@@H]4CC[C@@]32C=C1C(C)C [Compound 44, 1′-Cyano-1-hydroxy-13-isopropyl-7,10a,2′-trimethyl-5,6,6b,7,8,9,10,10a,10b,11,12,13-dodecahydro-12,4b-ethenophenanthro [2,1-g]indole-7-carboxylic acid]
- melting point: 127 to 129 °C
- IC50 [1, 9]: 68.22 ± 0.03 µM
- α-GLy inhibitory activity, in words [1]: very good activity

SMILES: O=c1c(O)c(-c2ccc(O)c(O)c2)oc2cc(O)cc(O)c12 [Quercetin, reference compound]
- IC50 values, antioxidant test (DPPH) [2]: 8.01 ± 0.15 µg/mL (≈ 26.5 µM)

SMILES: COC(=O)c1c(C)[nH]c2c3c(c(OCCC#N)cc12)C1CC2C3(C=C1C(C)C)CCC1C(C)(C(=O)OC)CCCC12C (stereo not drawn) [Compound 47, Methyl 1-(8′-cyanoethoxy)-13-isopropyl-1′-(ethoxycarbonyl)-7,10a,2′-trimethyl-5,6,6b,7,8,9,10,10a,10b,11,12,13-dodecahydro-12,4b-ethenophenanthro [2,1-g]indole-7-carboxylate]
- melting point: 127 to 129 °C
- IC50 [1, 9]: 4.95 ± 0.25 µM

SMILES: Cc1[nH]c2c3c(c(O)cc2c1CO)[C@H]1C[C@@H]2[C@@]4(C)CCC[C@@](C)(CO)[C@@H]4CC[C@@]32C=C1C(C)C [Compound 38]
- IC50 at 72 h (MTT cytotoxicity assay; Hep-G2 hepatocellular carcinoma cells (ATCC HB-8065)): 50.8 ± 1.2 µg/mL (≈ 110 µM)
- IC50 at 72 h (MTT cytotoxicity assay; KB epidermoid carcinoma cells (ATCC CCL-17)): 39.5 ± 1 µg/mL (≈ 85.3 µM)
- IC50 at 72 h (MTT cytotoxicity assay; Lu-1 lung adenocarcinoma cells (ATCC HTB-57)): 58.1 ± 1.8 µg/mL (≈ 125 µM)
- IC50 at 72 h (MTT cytotoxicity assay; MCF-7 breast adenocarcinoma cells (ATCC HTB-22)): 60.4 ± 1.6 µg/mL (≈ 130 µM)
- IC50 values, antioxidant test (DPPH) [2]: 227.76 ± 4.9 µg/mL (≈ 491 µM)
- IC50 (Salmonella enterica): > 256 µg/mL
- MIC (Salmonella enterica): > 256 µg/mL
- IC50 [3]: > 256 µg/mL
- MIC [3]: > 256 µg/mL
- IC50 [4]: > 256 µg/mL
- MIC [4]: > 256 µg/mL
- IC50 [5]: 34.3 ± 1.75 µg/mL (≈ 74 µM)
- MIC [5]: > 256 µg/mL
- IC50 [6]: 102 ± 7.21 µg/mL (≈ 221 µM)
- MIC [6]: 256 µg/mL (≈ 552 µM)
- IC50 [7]: > 256 µg/mL
- MIC [7]: > 256 µg/mL
- IC50 [8]: > 256 µg/mL
- MIC [8]: > 256 µg/mL
- IC50 [1, 10]: 0.39 ± 0.03 µM

SMILES: C#CCOC(=O)C1(C)CCCC2(C)C1CCC13C=C(C(C)C)C(CC12)c1c(O)cc2c(C(=O)OCC)c(C)[nH]c2c13 (stereo not drawn) [Compound 46, Ethyl 7-propynyl 1-hydroxy-13-isopropyl-7,10a,2′-trimethyl-5,6,6b,7,8,9,10,10a,10b, 11,12,13-dodecahydro-12,4b-ethenophenanthro [2,1-g]indole-7,1′-dicarboxylate]
- melting point: 98 to 100 °C
- IC50 [1, 9]: > 255 µM

SMILES: CCOC(=O)c1c(C)[nH]c2c3c(c(O)cc12)C1CC2C3(C=C1C(C)C)CCC1C(C)(C(=O)O)CCCC12C (stereo not drawn) [Compound 42, 1-Hydroxy-13-isopropyl-1′-(ethoxycarbonyl)-7,10a,2′-trimethyl-5,6,6b,7,8,9,10,10a, 10b,11,12,13-dodecahydro-12,4b-ethenophenanthro-[2,1-g]indole-7-carboxylic acid]
- melting point: 131 to 133 °C
- IC50 [1, 9]: 2.52 ± 0.34 µM
- α-GLy inhibitory activity, in words [1]: very good activity

SMILES: CC(C)C1=C[C@@]23CC[C@@H]4[C@](C)(CCC[C@@]4(C)C(=O)N4CCCNCC4)[C@H]2C[C@@H]1[C@H]1C(=O)CCC(=O)[C@H]13 [Compound 11]
- IC50 [1, 9]: > 255 µM

SMILES: COC(=O)[C@]1(C)CCC[C@]2(C)[C@H]3C[C@@H]4[C@H]5[C@@H]6CCC(=NO)[C@H]5[C@@]3(CC[C@H]21)C[C@@]4(C(C)C)O6 [Compound 4]
- IC50 [1, 9]: > 255 µM

SMILES: COC(=O)[C@]1(C)CCC[C@]2(C)[C@H]3C[C@@H]4[C@H]5[C@@H]6Cc7c([nH]c8ccccc78)[C@H]5[C@@]3(CC[C@H]21)C[C@@]4(C(C)C)O6 [Compound 33]
- IC50 [1, 9]: 65.98 ± 0.03 µM

SMILES: CC(C)C1=CC23CCC4C(C)(C(=O)O)CCCC4(C)C2CC1c1c(O)ccc(O)c13 (stereo not drawn) [Compound 49]
- IC50 [1, 9]: > 255 µM

SMILES: COC(=O)[C@]1(C)CCC[C@]2(C)[C@H]3C[C@H]4C(C(C)C)=C[C@]3(CC[C@H]21)[C@@H]1C(=O)C(=Cc2ccc(OC)cc2)C[C@H](O)[C@@H]14 [Compound 6]
- IC50 [1, 10]: 1.63 ± 0.006 µM
